Results published in patent publication US8471024B2, “Tetrahydrofuropyridones” (priority 2008, dated 2013).
pIC50: −log10 of the molar value.

These molecules were tested against T1, PHD2 (Homo sapiens, UniProt Q9GZT9) (assay: Assay for HIF-PHD2 Catalytic Activity (time resolved fluorescence, VHL complex detection)). Conditions: FLAG-tagged full length PHD2; 0.2 μM 2-oxoglutarate, 0.5 μM HIF-1α peptide; read-out: PHD2 Binding Activity IC50.
T1 construct: FLAG-tagged full length PHD2expressed in and purified from baculovirus-infected Sf9 cells; FLAG; made in house; host or cells: baculovirus-infected Sf9 cells
Assay type: biochemical
Protocol: Assay for HIF-PHD2Catalytic Activity To each well of a 96-well plate was added 1 μL of test compound in DMSO and 20 μl of assay buffer (50 mM Tris pH 7.4/0.01% Tween-20/0.1 mg/ml bovine serum albumin/10 μM ferrous sulfate/1mM sodium ascorbate/20 μg/ml catalase) containing 0.15 μg/ml FLAG-tagged full length PHD2expressed in and purified from baculovirus-infected Sf9 cells. After a 30 min preincubation at room temperature, the enzymatic reactions were initiated by the addition of 4 μL of substrates (final concentrations of 0.2 μM 2-oxoglutarate and 0.5 μM HIF-1α peptide biotinyl-DLDLEMLAPYJPMDDDFQL).

T1 sequence (Q9GZT9 whole entry): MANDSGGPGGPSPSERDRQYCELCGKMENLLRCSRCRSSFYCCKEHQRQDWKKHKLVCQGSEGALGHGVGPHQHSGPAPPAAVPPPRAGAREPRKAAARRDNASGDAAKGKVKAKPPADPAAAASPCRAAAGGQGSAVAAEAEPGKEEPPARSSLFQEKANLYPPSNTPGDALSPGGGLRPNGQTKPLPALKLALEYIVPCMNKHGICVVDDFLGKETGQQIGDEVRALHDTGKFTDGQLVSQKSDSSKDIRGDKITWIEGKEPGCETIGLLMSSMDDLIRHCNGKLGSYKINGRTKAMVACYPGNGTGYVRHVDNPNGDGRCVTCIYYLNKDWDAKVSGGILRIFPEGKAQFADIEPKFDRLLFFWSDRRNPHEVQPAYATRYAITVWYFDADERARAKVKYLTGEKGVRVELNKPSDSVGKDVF

pIC50	Compound
> 8.00	O=C(O)CNC(=O)c1c(O)c2c(n(Cc3ccc(-c4ccc(F)cc4F)nc3)c1=O)COC2 [Example 44, N-[(1-{[6-(2,4-difluorophenyl)pyridin-3-yl]methyl}-4-hydroxy-2-oxo-1,2,5,7-tetrahydrofuro[3,4-b]pyridin-3-yl)carbonyl]glycine]
> 8.00	O=C(O)CNC(=O)c1c(O)c2c(n(Cc3cnc(-c4ccc(F)cc4F)cn3)c1=O)COC2 [Example 51, N-[(1-{[5-(2,4-difluorophenyl)pyrazin-2-yl]methyl}-4-hydroxy-2-oxo-1,2,5,7-tetrahydrofuro[3,4-b]pyridin-3-yl)carbonyl]glycine]
> 8.00	O=C(O)CNC(=O)c1c(O)c2c(n(Cc3cnc(-c4ccc(F)c(F)c4)cn3)c1=O)COC2 [Example 52, N-[(1-{[5-(3,4-difluorophenyl)pyrazin-2-yl]methyl}-4-hydroxy-2-oxo-1,2,5,7-tetrahydrofuro[3,4-b]pyridin-3-yl)carbonyl]glycine]
> 8.00	O=C(O)CNC(=O)c1c(O)c2c(n(Cc3cnc(-c4ccccc4Cl)cn3)c1=O)COC2 [Example 53, N-[(1-{[5-(2-chlorophenyl)pyrazin-2-yl]methyl}-4-hydroxy-2-oxo-1,2,5,7-tetrahydrofuro[3,4-b]pyridin-3-yl)carbonyl]glycine]

The next lines start with the molecule.

Compound	pIC50
O=C(O)CNC(=O)c1c(O)c2c(n(Cc3ccc(-c4cc(F)ccc4F)nc3)c1=O)COC2 [Example 45, N-[(1-{[6-(2,5-difluorophenyl)pyridin-3-yl]methyl}-4-hydroxy-2-oxo-1,2,5,7-tetrahydrofuro[3,4-b]pyridin-3-yl)carbonyl]glycine]	> 8.00
O=C(O)CNC(=O)c1c(O)c2c(n(Cc3ccc(-c4ccccc4OCC(F)(F)F)nc3)c1=O)COC2 [Example 46]	> 8.00
O=C(O)CNC(=O)c1c(O)c2c(n(Cc3ccc(-c4ccccc4C(F)(F)F)nc3)c1=O)COC2 [Example 47, N-{[4-hydroxy-2-oxo-1-({6-[2-(trifluoromethyl)phenyl]pyridin-3-yl}methyl)-1,2,5,7-tetrahydrofuro[3,4-b]pyridin-3-yl]carbonyl}glycine]	> 8.00
O=C(O)CNC(=O)c1c(O)c2c(n(Cc3ccc(-c4ccccc4OC(F)(F)F)nc3)c1=O)COC2 [Example 48, N-{[4-hydroxy-2-oxo-1-({6-[2-(trifluoromethoxy)phenyl]pyridin-3-yl}methyl)-1,2,5,7-tetrahydrofuro[3,4-b]pyridin-3-yl]carbonyl}glycine]	> 8.00
O=C(O)CNC(=O)c1c(O)c2c(n(Cc3ccc(-c4ccccc4F)nc3)c1=O)COC2 [Example 49, N-[(1-{[6-(2-fluorophenyl)pyridin-3-yl]methyl}-4-hydroxy-2-oxo-1,2,5,7-tetrahydrofuro[3,4-b]pyridin-3-yl)carbonyl]glycine]	> 8.00
O=C(O)CNC(=O)c1c(O)c2c(n(Cc3ccc(-c4ccc(F)cc4Cl)nc3)c1=O)COC2 [Example 50, N-[(1-{[6-(2-chloro-4-fluorophenyl)pyridin-3-yl]methyl}-4-hydroxy-2-oxo-1,2,5,7-tetrahydrofuro[3,4-b]pyridin-3-yl)carbonyl]glycine]	> 8.00
O=C(O)CNC(=O)c1c(O)c2c(n(Cc3cnc(-c4ccccc4OC(F)(F)F)cn3)c1=O)COC2 [Example 54, N-[(1-{[5-(2-trifluoromethoxyphenyl)pyrazin-2-yl]methyl}-4-hydroxy-2-oxo-1,2,5,7-tetrahydrofuro[3,4-b]pyridin-3-yl)carbonyl]glycine]	> 8.00
